Test results taken from PubChem BioAssay (NCI).
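Cells were grown in 96-well plates and exposed to each compound for 48 hours at five concentrations; endpoints were interpolated linearly between bracketing concentrations, or set to the highest concentration if not reached. GI50 marks 50% less growth. TGI is the concentration that stops growth completely.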

Assays:
Test in all cases: growth of human tumour cells (NCI), 48 h
MOLT-4 leukemia = tested on: MOLT-4 leukemia
RXF 393 renal = tested on: RXF 393 renal
COLO 205 colon = tested on: COLO 205 colon
MALME-3M melanoma = tested on: MALME-3M melanoma
RPMI-8226 leukemia = tested on: RPMI-8226 leukemia
EKVX NSCLC = tested on: EKVX NSCLC
T-47D breast = tested on: T-47D breast
TK-10 renal = tested on: TK-10 renal
UACC-62 melanoma = tested on: UACC-62 melanoma
NCI/ADR-RES ovarian = tested on: NCI/ADR-RES ovarian
NCI-H23 lung = tested on: NCI-H23 lung
HCC-2998 colon = tested on: HCC-2998 colon
LOX IMVI melanoma = tested on: LOX IMVI melanoma
MDA-MB-435 = tested on: MDA-MB-435
HCT-116 colon = tested on: HCT-116 colon
SW-620 colon = tested on: SW-620 colon
U251 CNS = tested on: U251 CNS
A498 renal = tested on: A498 renal
OVCAR-4 ovarian = tested on: OVCAR-4 ovarian
SF-295 CNS = tested on: SF-295 CNS
NCI-H460 lung = tested on: NCI-H460 lung
SK-MEL-2 melanoma = tested on: SK-MEL-2 melanoma
SN12C renal = tested on: SN12C renal
CCRF-CEM leukemia = tested on: CCRF-CEM leukemia
KM12 colon = tested on: KM12 colon
IGROV1 ovarian = tested on: IGROV1 ovarian
HOP-62 NSCLC = tested on: HOP-62 NSCLC
DU-145 prostate = tested on: DU-145 prostate
786-0 renal = tested on: 786-0 renal
UACC-257 melanoma = tested on: UACC-257 melanoma
SK-OV-3 ovarian = tested on: SK-OV-3 ovarian
MDA-MB-231 breast = tested on: MDA-MB-231 breast
SF-268 CNS = tested on: SF-268 CNS
SNB-19 CNS = tested on: SNB-19 CNS
NCI-H522 lung = tested on: NCI-H522 lung
SR leukemia = tested on: SR leukemia
ACHN renal = tested on: ACHN renal
HCT-15 colon = tested on: HCT-15 colon
OVCAR-5 ovarian = tested on: OVCAR-5 ovarian
OVCAR-3 ovarian = tested on: OVCAR-3 ovarian
SK-MEL-28 melanoma = tested on: SK-MEL-28 melanoma
PC-3 prostate = tested on: PC-3 prostate
MCF7 breast = tested on: MCF7 breast
HT29 colon = tested on: HT29 colon
A549 NSCLC = tested on: A549 NSCLC
M14 melanoma = tested on: M14 melanoma
CAKI-1 renal = tested on: CAKI-1 renal
HOP-92 NSCLC = tested on: HOP-92 NSCLC
HS 578T breast = tested on: HS 578T breast
SNB-75 CNS = tested on: SNB-75 CNS
UO-31 renal = tested on: UO-31 renal
OVCAR-8 ovarian = tested on: OVCAR-8 ovarian
HL-60(TB) leukemia = tested on: HL-60(TB) leukemia
NCI-H226 lung = tested on: NCI-H226 lung
SF-539 CNS = tested on: SF-539 CNS
K-562 leukemia = tested on: K-562 leukemia
SK-MEL-5 melanoma = tested on: SK-MEL-5 melanoma
BT-549 breast = tested on: BT-549 breast
MDA-N = tested on: MDA-N

O=C1Nc2c(ccc(Cl)c2Cl)/C1=C\c1cc(C(F)(F)F)cc(C(F)(F)F)c1
GI50 (MOLT-4 leukemia): 2.09 µM
TGI (MOLT-4 leukemia): 4.68 µM
GI50 (RXF 393 renal): 1.21 µM
TGI (RXF 393 renal): 2.94 µM
GI50 (COLO 205 colon): 1.32 µM
TGI (COLO 205 colon): 4.84 µM
GI50 (MALME-3M melanoma): 0.795 µM
TGI (MALME-3M melanoma): 8.91 µM
GI50 (RPMI-8226 leukemia): 0.115 µM
TGI (RPMI-8226 leukemia): 1.45 µM
GI50 (EKVX NSCLC): 1.93 µM
TGI (EKVX NSCLC): 11.2 µM
GI50 (T-47D breast): 2.5 µM
TGI (T-47D breast): 10.2 µM
GI50 (TK-10 renal): 4.37 µM
TGI (TK-10 renal): 13 µM
GI50 (UACC-62 melanoma): 1.77 µM
TGI (UACC-62 melanoma): 7.41 µM
GI50 (NCI/ADR-RES ovarian): 6.38 µM
TGI (NCI/ADR-RES ovarian): 14.8 µM
GI50 (NCI-H23 lung): 4.95 µM
TGI (NCI-H23 lung): 21.6 µM
GI50 (HCC-2998 colon): 7.71 µM
TGI (HCC-2998 colon): 14.9 µM
GI50 (LOX IMVI melanoma): 1.12 µM
TGI (LOX IMVI melanoma): 3.69 µM
GI50 (MDA-MB-435): 1.99 µM
TGI (MDA-MB-435): 7.64 µM
GI50 (HCT-116 colon): 1.41 µM
TGI (HCT-116 colon): 5.07 µM
GI50 (SW-620 colon): 1.66 µM
TGI (SW-620 colon): 6.1 µM
GI50 (U251 CNS): 1.15 µM
TGI (U251 CNS): 3.22 µM
GI50 (A498 renal): 5.59 µM
TGI (A498 renal): 13.6 µM
GI50 (OVCAR-4 ovarian): 1.81 µM
TGI (OVCAR-4 ovarian): 7.66 µM
GI50 (SF-295 CNS): 1.92 µM
TGI (SF-295 CNS): 8.02 µM
GI50 (NCI-H460 lung): 2.45 µM
TGI (NCI-H460 lung): 7.68 µM
GI50 (SK-MEL-2 melanoma): 4.11 µM
TGI (SK-MEL-2 melanoma): 10.9 µM
GI50 (SN12C renal): 3.59 µM
TGI (SN12C renal): 10.9 µM
GI50 (CCRF-CEM leukemia): 0.959 µM
TGI (CCRF-CEM leukemia): 2.58 µM
GI50 (KM12 colon): 1.42 µM
TGI (KM12 colon): 5.53 µM
GI50 (IGROV1 ovarian): 0.222 µM
TGI (IGROV1 ovarian): 3.52 µM
GI50 (HOP-62 NSCLC): 7.04 µM
TGI (HOP-62 NSCLC): 14.4 µM
GI50 (DU-145 prostate): 5.57 µM
TGI (DU-145 prostate): 13.5 µM
GI50 (786-0 renal): 4.29 µM
TGI (786-0 renal): 10.4 µM
GI50 (UACC-257 melanoma): 6.62 µM
TGI (UACC-257 melanoma): 13.7 µM
GI50 (SK-OV-3 ovarian): 9.28 µM
TGI (SK-OV-3 ovarian): 27.2 µM
GI50 (MDA-MB-231 breast): 3.74 µM
TGI (MDA-MB-231 breast): 10.8 µM
GI50 (SF-268 CNS): 1.86 µM
TGI (SF-268 CNS): 8.51 µM
GI50 (SNB-19 CNS): 5.7 µM
TGI (SNB-19 CNS): 19.3 µM
GI50 (NCI-H522 lung): 1.54 µM
TGI (NCI-H522 lung): 6.47 µM
GI50 (SR leukemia): 0.392 µM
TGI (SR leukemia): 1.9 µM
GI50 (ACHN renal): 3.18 µM
TGI (ACHN renal): 11.3 µM
GI50 (HCT-15 colon): 1.4 µM
TGI (HCT-15 colon): 6.07 µM
GI50 (OVCAR-5 ovarian): 4.26 µM
TGI (OVCAR-5 ovarian): 11.4 µM
GI50 (OVCAR-3 ovarian): 1.1 µM
TGI (OVCAR-3 ovarian): 4.27 µM
GI50 (SK-MEL-28 melanoma): 2.1 µM
TGI (SK-MEL-28 melanoma): 7.61 µM
GI50 (PC-3 prostate): 1.1 µM
TGI (PC-3 prostate): 4.51 µM
GI50 (MCF7 breast): 0.848 µM
TGI (MCF7 breast): 5.64 µM
GI50 (HT29 colon): 1.95 µM
TGI (HT29 colon): 6.68 µM
GI50 (A549 NSCLC): 4.81 µM
TGI (A549 NSCLC): 13 µM
GI50 (M14 melanoma): 5.06 µM
TGI (M14 melanoma): 11.3 µM
GI50 (CAKI-1 renal): 0.399 µM
TGI (CAKI-1 renal): 7.85 µM
GI50 (HOP-92 NSCLC): 1.44 µM
TGI (HOP-92 NSCLC): 7.42 µM
GI50 (HS 578T breast): 1.21 µM
TGI (HS 578T breast): 3.18 µM
GI50 (SNB-75 CNS): 1.05 µM
TGI (SNB-75 CNS): 7.48 µM
GI50 (UO-31 renal): 0.485 µM
TGI (UO-31 renal): 8.74 µM
GI50 (OVCAR-8 ovarian): 5.75 µM
TGI (OVCAR-8 ovarian): 16 µM
GI50 (HL-60(TB) leukemia): 1.13 µM
TGI (HL-60(TB) leukemia): 2.37 µM
GI50 (NCI-H226 lung): 5.48 µM
TGI (NCI-H226 lung): 13.7 µM
GI50 (SF-539 CNS): 6.95 µM
TGI (SF-539 CNS): 13.8 µM
GI50 (K-562 leukemia): 1.55 µM
TGI (K-562 leukemia): 5.97 µM
GI50 (SK-MEL-5 melanoma): 2.67 µM
TGI (SK-MEL-5 melanoma): 8.45 µM
GI50 (BT-549 breast): 6.02 µM
TGI (BT-549 breast): 12.5 µM

CN1C(=O)[C@@H]2[C@@H]3c4ccccc4N[C@@H]3c3[nH]c4ccccc4c3[C@@H]2C1=O
TGI (MOLT-4 leukemia): 55.6 µM
TGI (RXF 393 renal): 64.4 µM
TGI (COLO 205 colon): 36.5 µM
TGI (RPMI-8226 leukemia): 47 µM
TGI (EKVX NSCLC): > 100 µM
TGI (TK-10 renal): 77.6 µM
TGI (UACC-62 melanoma): 32.4 µM
TGI (NCI/ADR-RES ovarian): 52 µM
TGI (NCI-H23 lung): 28.6 µM
TGI (HCC-2998 colon): 40.3 µM
TGI (LOX IMVI melanoma): 46.6 µM
TGI (MDA-MB-435): 64.7 µM
TGI (HCT-116 colon): 74.9 µM
TGI (SW-620 colon): > 100 µM
TGI (U251 CNS): 66.3 µM
TGI (A498 renal): 65.3 µM
TGI (OVCAR-4 ovarian): 54.3 µM
TGI (SF-295 CNS): 47 µM
TGI (NCI-H460 lung): 31.4 µM
TGI (SK-MEL-2 melanoma): 33.1 µM
TGI (SN12C renal): > 100 µM
TGI (CCRF-CEM leukemia): 46.5 µM
TGI (IGROV1 ovarian): 26.9 µM
TGI (HOP-62 NSCLC): 43.5 µM
TGI (DU-145 prostate): > 100 µM
TGI (UACC-257 melanoma): 48.9 µM
TGI (SK-OV-3 ovarian): 66.7 µM
TGI (MDA-MB-231 breast): 63.2 µM
TGI (SF-268 CNS): 92.6 µM
TGI (SNB-19 CNS): > 100 µM
TGI (SR leukemia): 59.3 µM
TGI (ACHN renal): 49.9 µM
TGI (HCT-15 colon): 50.1 µM
TGI (OVCAR-5 ovarian): 64.2 µM
TGI (OVCAR-3 ovarian): 40 µM
TGI (SK-MEL-28 melanoma): 67.9 µM
TGI (PC-3 prostate): 50.5 µM
TGI (MCF7 breast): > 100 µM
TGI (HT29 colon): > 100 µM
TGI (A549 NSCLC): 65.1 µM
TGI (CAKI-1 renal): > 100 µM
TGI (MDA-N): > 100 µM
TGI (HOP-92 NSCLC): 59.7 µM
TGI (HS 578T breast): 76.5 µM
TGI (SNB-75 CNS): 85.8 µM
TGI (UO-31 renal): 43.9 µM
TGI (OVCAR-8 ovarian): 63.1 µM
TGI (NCI-H226 lung): > 100 µM
TGI (SF-539 CNS): 39.3 µM
TGI (K-562 leukemia): 74.7 µM
TGI (SK-MEL-5 melanoma): 25 µM
TGI (BT-549 breast): 53.6 µM
